According to patent US6723716B1, “7-acylamino-3-heteroarylthio-3-cephem carboxylic acid antibiotics and prodrugs thereof” (Essential Therapeutics, Inc., priority 1999, dated 2004):
Where two headings read alike, the source gives them in different places.

Tests used:
[1] = test system: human serum proteins; test: Serum binding determination by ultrafiltration/HPLC; type: in vitro ADME; conditions: by HPLC
Procedure: The more accurate measurement of binding of selected cephalosporin compounds was performed using HPLC as described below.
1. Serum is placed in a shaking water bath preheated to 37±2° C. for 5 to 10 minutes to heat serum to 37° C. Serum pH is measured and recorded, while serum is 37° C. using pH paper. Measurements are taken twice, 3 minutes apart. If the pH is not 7.4±0.4 then the pH is adjusted by blowing 5% CO2/95% O2 over the serum. After blowing for several minutes, serum is heated to 37° C. and measurements are taken twice, 3 minutes apart using pH paper to determine the pH. Store at 4° C. The serum is stable for 7 days. Always check the pH before each use.
2. Before any centrifugation, the centrifuge temperature must be adjusted to 25±2° C. Preheat the centrifuge by spinning for 45 minutes at the same speed to be used in the assay (1900 g) with two tubes of water in the rotor and the temperature set to 25° C. When the centrifuge stops immediately check the temperature of the tubes of water with a calibrated thermometer. The temperature of the tubes of water must be 25±2° C. […] Continue spinning and measuring the temperature and adjusting the setting until the temperature is 25±2° C.
3. Prepare blank ultrafiltrate by pipetting blank pH 7.4 serum into an Amicon Centrifree Micropartition devices, centrifuge: fixed angle rotor, 1900 g, 25° C. for 20 minutes. Heat ultrafiltrate in a shaking water bath preheated to 37° C. Measure ultrafiltrate pH and adjust to the pH of the serum (7.4±0.2).
4. Pipette 190 ul of blank ultrafiltrate into a set of labeled 1.7 mL polypropylene microfuge tubes for 3 of each level. Pipette 10 μL of the appropriate standard stock 50, 200, 1000 μg/mL to make standards 2.5, 10, and 50 μg/mL respectively. Vortex each tube well. One set of the standard samples are mixed 1:1 with 0.2 M acetic acid and injected onto the HPLC (MSTD). These samples are the membrane standards and will be used to compare to the other standards. Pipette 190 ul of ultrafiltrate and spike with 10 ul of whatever solution (e.g. water) the standards are prepared in to make the zero standard.
5. Pipette 475 μL of blank heated pH 7.4 serum into a set of labeled 1.7 mL polypropylene microfuge tubes for 2 of each (Serum A and Serum B). Pipette 25 μL of the 1000 μg/mL standard stock into each tube, vortex each tube well to make serum standard 50 μg/mL. Remove 100 μL of serum and deproteinate with 200 μL 4% TCA while vortexing to make serum time 0 (serum 50, T0). Place serum tubes in a shaking water bath at 37° C. for 10 minutes. Pipet 100 μL of serum out and deproteinate with 200 μL 4% TCA, to make serum time 10 min (serum 50, T10). Pipet 200 ul serum standard 50 μg/mL into an ultrafiltration device, which is not treated with TCA, to determine free drug in samples (Rat Serum 50).
6. Transfer serum and standard samples to labeled Amicon Centrifree Micropartition filters, and centrifuge: 1900 g, 25° C. for 10 minutes. The extracted serum samples (T0 and T10) are spun down and supernatant is loaded into HPLC vials.
7. 100 μL of ultrafiltrate sample and 100 μL of 0.2 M acetic acid were mixed together to stabilize the compound in ultrafiltrate.
8. Transfer entire stabilized ultrafiltrate solution to a labeled autoinjector HPLC vial cap with Teflon septa, and inject on HPLC.
Peak height or area is used in a weighted linear regression.

[2] = In vitro stability of compounds in rat serum; type: in vitro ADME; conditions: for stability of compounds in rat serum: Table 2 data; for Stability in rat serum (% loss): after 60 min exposure to rat serum, 37° C., HPLC
Procedure: In general, compounds from the class of 7-acylamino-3-heteroarylthio-3-cephem carboxylic acids have higher chemical reactivity and lower stability towards chemical or enzymatic decomposition than most typical cephalosporins. […] Results shown in Table 2 represent percentage loss of the initial amount of cephalosporin compound upon 60 min incubation in rat serum.
Procedure for measuring degree of degradation of cephalosporin compounds in rat serum was as follows:
Fresh control rat serum (heparinized and stored frozen) is preincubated at 37° C. for 15 min in a shaking water bath. pH is measured using test strips. 25 μL of a 2 mg/mL solution cephalosporin compound (in water) of is then added to each matrix to make 1000 μL. Solutions were incubated at 37° C. 100 ul of solution was taken out at time=0, 15, 30, and 60 min post dose and added 200 μL 4% trichloroacetic acid, vortexed, and centrifuged for 10 min at 14,000 rpm in an Eppendorf microcentrifuge. 25 μL of each supernatant was injected onto HPLC. Experiment was repeated using 25 μL of a 0.2 mg/mL cephalosporin compound. Degradation is measured as the percentage of HPLC peak area at time t relative to peak area at time 0.
HPLC conditions: Beckman Ultrasphere C18 column. 5 u. 4.6 mm×25 cm. 1 mL/min of 95% 0.1 M ammonium acetate, pH 6, 5% ACN going to 75% buffer/organic over 20 min. UV monitored at 254 and 280 nm.

[3] = Pharmacokinetic evaluation in rat (clearance); type: in vivo; conditions: male, Sprague-Dawley (SD), serum, iv, read-out: Pharmacokinetics Clearance (converted)
From the text: Four male SD rats with femoral and jugular vein catheters were obtained from Hilltop Lab Animals, Inc. (Scottdale, Pa.). The catheters in the femoral and jugular veins were filled with 10 units/mL heparin in saline, and kept patent by changing the solution daily. The animals were quarantined for a minimum of two days prior to use, and were maintained on a 12-h light:dark schedule with constant access to food and water before and during the study. On the day of dosing, the animals weighed […] (mean±s.d.).
A 4 mg/mL (active component) dosing solution of mesylate salt of compound 17 was prepared in sterile saline for injection. […] Blood samples (0.2 mL aliquots) were collected from the jugular vein catheter 5, 15, 20, 25, 30, and 45 min, and 1, 2, 3, and 4 h after the start of the infusion. The blood was centrifuged for 10 min and the serum was stored ≦−70° C. until analysis by HPLC.
The plasma concentrations from individual animals were fit to a two-compartment model with zero order input and first-order elimination from the central compartment using weighted nonlinear regression (WinNonlin, Pharsight, Palo Alto, Calif.). Pharmacokinetic parameters were calculated from the fitted parameters using standard equations (Gibaldi M, Perrier D. 1982. Pharmacokinetics, 2nd ed., Marcel Dekker Inc., New York.).

Compound	Serum Binding human (% of compound bound to serum) [1] [%]	stability of compounds in rat serum [2]	Stability in rat serum (% loss) [2] [%]	clearance ([3]; dose 20.0 mg/kg) [mL/min/kg]	clearance ([3]; dose 27.5 mg/kg) [mL/min/kg]	clearance ([3]; dose 16.4 mg/kg, mesylate salt, 20 min i.v. infusion) [mL/min/kg]
N=C(N)NCCSCc1cnccc1SC1=C(C(=O)O)N2C(=O)[C@@H](NC(=O)/C(=N\O)c3nsc(N)n3)[C@H]2SC1 [Cmpd 25, (7R)-7-[(Z)-2-(5-amino-1,2,4-thiadiazol-3-yl)-2-(hydroxyimino)acetamido]-3-[3-(2-guanidinoethylthiomethyl)pyrid-4-ylthio]-3-cephem-4-carboxylic acid]	47	improved stability	45	18.7		
NCCSCc1nc(N)sc1SC1=C(C(=O)O)N2C(=O)[C@@H](NC(=O)/C(=N\O)c3nc(N)sc3Cl)[C@H]2SC1 [Cmpd 3, (7R)-7-[(Z)-2-(2-amino-5-chlorothiazol-4-yl)-2-(hydroxyimino)acetamido]-3-[4-(2-aminoethylthiomethyl)-2-amino-1,3-thiazol-5-ylthio]-3-cephem-4-carboxylic acid]	88	improved stability	3		15.8	
NCCSCc1ncccc1SC1=C(C(=O)O)N2C(=O)[C@@H](NC(=O)/C(=N\O)c3nc(N)sc3Cl)[C@H]2SC1 [Cmpd 13, (7R)-7-[(Z)-2-(2-amino-5-chlorothiazol-4-yl)-2-(hydroxyimino)acetamido]-3-[2-(2-aminoethylthiomethyl)pyrid-3-ylthio]-3-cephem-4-carboxylic acid]	90	improved stability	9	13.2		
NCCSCc1cnccc1SC1=C(C(=O)O)N2C(=O)[C@@H](NC(=O)/C(=N\O)c3nsc(N)n3)[C@H]2SC1 [Cmpd 18, (7R)-7-[(Z)-2-(5-amino-1,2,4-thiadiazol-3-yl)-2-(hydroxyimino)acetamido]-3-[3-(2-aminoethylthiomethyl)pyrid-4-ylthio]-3-cephem-4-carboxylic acid]	66		23	36.2		
NCCSCc1ccncc1SC1=C(C(=O)O)N2C(=O)[C@@H](NC(=O)/C(=N\O)c3nc(N)sc3Cl)[C@H]2SC1 [Cmpd 21, (7R)-7-[(Z)-2-(2-amino-5-chlorothiazol-4-yl)-2-(hydroxyimino)acetamido]-3-[4-(2-aminoethylthiomethyl)pyrid-3-ylthio]-3-cephem-4-carboxylic acid]	90	improved stability	3	12.2		
NCCSCc1cnccc1SC1=C(C(=O)O)N2C(=O)[C@@H](NC(=O)/C(=N\O)c3nc(N)sc3Cl)[C@H]2SC1 [Cmpd 20, (7R)-7-[(Z)-2-(2-amino-5-chlorothiazol-4-yl)-2-(hydroxyimino)acetamido]-3-[3-(2-aminoethylthiomethyl)pyrid-4-ylthio]-3-cephem-4-carboxylic acid]	84		70	26.5		
NCCSCc1ncsc1SC1=C(C(=O)O)N2C(=O)[C@@H](NC(=O)/C(=N\O)c3cccc(N)n3)[C@H]2SC1 [Cmpd 23, (7R)-7-[(Z)-2-(2-aminopyrid-6-yl)-2-(hydroxyimino)acetamido]-3-[4-(2-aminoethylthiomethyl)-1,3-thiazol-5-ylthio]-3-cephem-4-carboxylic acid]	94	improved stability	19	13.5		
N=C(N)NCCSCc1ncccc1SC1=C(C(=O)O)N2C(=O)[C@@H](NC(=O)/C(=N\O)c3nsc(N)n3)[C@H]2SC1 [Cmpd 14, (7R)-7-[(Z)-2-(5-amino-1,2,4-thiadiazol-3-yl)-2-(hydroxyimino)acetamido]-3-[2-(2-guanidinoethylthiomethyl)pyrid-3-ylthio]-3-cephem-4-carboxylic acid]	60	improved stability	10			
NCCSCc1nc(SCCN)sc1SC1=C(C(=O)O)N2C(=O)[C@@H](NC(=O)/C(=N\O)c3nc(N)sc3Cl)[C@H]2SC1 [Cmpd 11, (7R)-7-[(Z)-2-(2-amino-5-chlorothiazol-4-yl)-2-(hydroxyimino)acetamido]-3-[4-(2-aminoethylthiomethyl)-2-aminoethylthio-1,3-thiazol-5-ylthio]-3-cephem-4-carboxylic acid]	83		47			
NCCSCc1ncccc1SC1=C(C(=O)O)N2C(=O)[C@@H](NC(=O)/C(=N\O)c3nsc(N)n3)[C@H]2SC1 [Cmpd 17, (7R)-7-[(Z)-2-(5-amino-1,2,4-thiadiazol-3-yl)-2-(hydroxyimino)acetamido]-3-[2-(2-aminoethylthiomethyl)pyrid-3-ylthio]-3-cephem-4-carboxylic acid]	66	improved stability	2			8.33
